Key:
[1] = test system: blood pressure lowering and heart frequency increasing effects induced by isoproterenol; experiment: Isoproterenol-induced blood pressure lowering and heart frequency increase in cats; format: in vivo; settings: LD50/10 i.v., 2 mg/kg i.v. isoproterenol
[2] = test system: guinea pig isolated left auricle; experiment: Antiisoproterenol effect in guinea pig isolated left auricle
Text: (§1) The antiisoproterenol effect of the compound is moderated.

[3] = test system: guinea pig isolated left auricle; experiment: Effective refractory period in guinea pig isolated left auricle (electrophysiology); settings: 5×10^-5 M
Text: as §1

[4] = test system: ventricular fibrillation threshold; experiment: Ventricular fibrillation threshold in open-chested anesthetized cats; format: in vivo
Text: (§2) In formula (Ia) R1 and R2 are as defined above, preferably R1 is branched alkyl or cycloalkyl, and R2 is hydrogen.

trachea preparation = experiment: Antiisoproterenol effect in trachea preparation
Text: as §1

β-receptor = experiment: Antiisoproterenol effect, overall and concentration curves
Text: as §1

[5] = test system: arrhythmia induced by 30 μg/kg i.v. aconitin; experiment: Aconitin-induced arrhythmia in rats; format: in vivo; settings: LD50/10 i.v.
Text: as §2

[6] = test system: ventricular tadhycardia provoked by Strophantin; experiment: Strophantin-provoked ventricular tachycardia in anesthetized cats; format: in vivo
Text: as §2

[7] = Acute toxicity in mice i.v.; settings: mouse, in vivo, iv
[8] = test system: blood pressure and heart frequency; format: in vivo, cats
rabbit ilium = experiment: Spasmolytic effect on rabbit ilium
rat intestine = experiment: Spasms induced in rat intestine by acetylcholine or barium chloride
blood pressure = experiment: Blood pressure, heart frequency and breathing in rabbits; format: in vivo; settings: i.v. or enterally
Text: (§3) Propanolamines of formula (Ib) [drawing 4] constitute another special subgroup of compounds of formula (I). In formula (Ib) R1 and R2 are as defined above. These compounds have also very advantageous pharmaceutical effects, which, however, differ from the effects of the butanolamines of formula (Ia).

rat Langendorff-heart = experiment: Coronary flow in rat Langendorff-heart; settings: 10 μg/0,1 ml dose
Text: as §3

[9] = test system: increase of the T-wave in the electrocardiogram induced by ornithine-vasopressin; experiment: Ornithine-vasopressin-induced T-wave increase in ECG of rabbits anesthetized with urethane (antianginic); format: in vivo; settings: LD50/40
Text: From the pharmaceutical point of view the strong antianginic effect of our compounds of formula (Ia) is very important.

CC1CCc2ccc(OCC(O)CNC3CCCCC3)cc2O1 (centres unmarked) [1-(2-methyl-3,4-dihydro-2H-1-benzopyrane-7-yloxy)-3-cyclohexylamino-2-propanol]
inhibition of blood pressure lowering and heart frequency increasing effects induced by isoproterenol [1]: inhibits strongly

OC(CCNC1CCCCC1)COc1ccc2c(c1)OC(c1ccccc1)CC2 (centres unmarked) [4-cyclohexylamino-1-(2-phenyl-3,4-dihydro-2H-1-benzopyrane-7-yloxy)-2-butanol]
concentration with antiisoproterenol effect in left auricle [2]: 50 µM
effect on effective refractory period compared with Practolol ([3]; versus Practolol): stronger by nearly an order of magnitude than that of Practolol
effect on effective refractory period compared with Propranolol ([3]; versus Propranolol): almost as strong as the effect of Propranolol
ventricular fibrillation threshold [4]: remarkably increases
ventricular fibrillation threshold, effect compared with Propranolol ([4]; versus Propranolol): stronger effect that that of Propranolol
concentration with antiisoproterenol effect in trachea preparation (trachea preparation): 10^-4 M
antiisoproterenol effect (β-receptor; overall): moderated
character of the antiisoproterenol effect (β-receptor; runs of the concentration curves): not of a competitive character
effect on arrhythmia induced by aconitin [5]: revokes arrhythmia
time for which ventricular tachycardia provoked by Strophantin is suspended [6]: 19 min

CC(C)NCC(O)COc1ccc2c(c1)OCCC2 (centres unmarked) [1-(3,4-dihydro-2H-1-benzopyrane-7-yloxy)-3-(1-methylethylamino)-2-propanol]
LD50 [7]: 66 mg/kg
blood pressure lowering ([8]; LD50/320 i.v., anesthetized cats): 33,5%

Cc1cc(=O)c2ccc(OCC(O)CNC(C)(C)C)cc2o1 (centres unmarked) [1-(2-methyl-4H-1-benzopyrane-4-one-7-yloxy)-3-(1,1-dimethylethylamino)-2-propanol]
reduction of blood pressure ([8]; LD50/20 i.v., anesthetized cats): 50.2%
effect on heart frequency ([8]; in vivo, iv): without significantly affecting their heart frequency
spasmolytic effect (rabbit ilium): spasmolytic agent with parasympatholytic and direct striped muscle effects
effect against spasms induced by acetylcholine (rat intestine; acetylcholine): effective
effect against spasms induced by barium chloride (rat intestine; barium chloride): effective

CC(C)NCC(O)COc1ccc2c(c1)OCC(c1ccccc1)C2 (centres unmarked) [1-(3-phenyl-3,4-dihydro-2H-1-benzopyrane-7-yloxy)-3-(1-methylethylamino)-2-propanol]
blood pressure lowering (blood pressure): significant and long-lasting blood pressure lowering
effect on heart frequency, volume of breathing and frequency of breathing (blood pressure): without affecting the heart frequency, the volume of breathing and the frequency of breathing
coronary flow (rat Langendorff-heart): increases the coronary flow

OC(CCNC1CCCCC1)COc1ccc2c(c1)OCC(c1ccccc1)C2 (centres unmarked) [4-cyclohexylamino-1-(3-phenyl-3,4-dihydro-2H-1-benzopyrane-7-yloxy)-2-butanol]
elimination of the increase of the T-wave in the electrocardiogram ([9]; rabbits anesthetized with urethane, 0.5 E/kg ornithine-vasopressin): eliminates practically completely
effect on T-wave increase compared with Propranolol ([9]; versus Propranolol): significantly surpasses the effect of Propranolol
